Measured values taken from patent US20250145630A1, “POLYMORPHS OF A PYRIDINYLIMIDAZO[1,2-B]PYRIDAZINE” (Cardurion Pharmaceuticals, Inc., priority 2023, published 2025).

How the values were obtained:
[1] = Storage stability of Formula (I) L-tartaric acid Form 2 co-crystal (long-term and accelerated); format: physicochemical; conditions: for Chemical Purity Assay: ASFB; for Crystallinity: to Form 2
Procedure: Formula (I) L-tartaric acid Form 2 co-crystal was evaluated for stability (Table 18 and Table 19). The co-crystal was stored in polyethylene double bags sealed with Nylon lock ties with two (2) 0.5 g silica gel desiccant packets in between, and inside a capped polyethylene container containing four (4) 33 g Silica Gel desiccant packs. The storage conditions were long-term condition 25° C./60% RH or accelerated condition 40° C./75% RH. The samples were analyzed for appearance, assay, related substances, chiral purity, water content and crystallinity.

[2] = as above; format: physicochemical; conditions: 25° C./60% RH, 0 months; to Form 2

COc1ccnc(-c2cnc3ccc(-c4ccc(F)c(O[C@@H](C)Cn5cnnn5)c4)nn23)c1C#N.COc1ccnc(-c2cnc3ccc(-c4ccc(F)c(O[C@@H](C)Cn5cnnn5)c4)nn23)c1C#N.O.O=C(O)C(O)C(O)C(=O)O.O=C(O)C(O)C(O)C(=O)O [Formula (I) L-Tartaric Acid Form 2]
Chiral Purity ([1]; 25° C./60% RH, 0 months): >99.9 area % | Description ([1]; 25° C./60% RH, 0 months): Off-white | Related Substances: Impurity #1 ([1]; 25° C./60% RH, 0 months): 0.25% | Total Impurities ([1]; 25° C./60% RH, 0 months): 0.25% | Water ([1]; 25° C./60% RH, 0 months): 1.59% | Chemical Purity Assay ([1]; 25° C./60% RH, 0 months): 99.3 wt % | Description ([1]; 25° C./60% RH, 3 months): Off-white | Related Substances: Impurity #1 ([1]; 25° C./60% RH, 3 months): 0.25% | Total Impurities ([1]; 25° C./60% RH, 3 months): 0.25% | Water ([1]; 25° C./60% RH, 3 months): 1.58% | Chemical Purity Assay ([1]; 25° C./60% RH, 3 months): 99.6 wt % | Crystallinity ([1]; 25° C./60% RH, 3 months): Conforms | Chiral Purity ([1]; 25° C./60% RH, 6 months): >99.9 area % | Description ([1]; 25° C./60% RH, 6 months): Off-white | Related Substances: Impurity #1 ([1]; 25° C./60% RH, 6 months): 0.26% | Total Impurities ([1]; 25° C./60% RH, 6 months): 0.26% | Water ([1]; 25° C./60% RH, 6 months): 1.55% | Chemical Purity Assay ([1]; 25° C./60% RH, 6 months): 99.3 wt % | Crystallinity ([1]; 25° C./60% RH, 6 months): Conforms | Chiral Purity ([1]; 40° C./75% RH, 0 months): >99.9 area % | Description ([1]; 40° C./75% RH, 0 months): Off-white | Related Substances: Impurity #1 ([1]; 40° C./75% RH, 0 months): 0.25% | Total Impurities ([1]; 40° C./75% RH, 0 months): 0.25% | Water ([1]; 40° C./75% RH, 0 months): 1.59% | Chemical Purity Assay ([1]; 40° C./75% RH, 0 months): 99.3 wt % | Crystallinity ([1]; 40° C./75% RH, 0 months): Conforms | Description ([1]; 40° C./75% RH, 3 months): Off-white | Related Substances: Impurity #1 ([1]; 40° C./75% RH, 3 months): 0.25% | Total Impurities ([1]; 40° C./75% RH, 3 months): 0.25% | Water ([1]; 40° C./75% RH, 3 months): 1.56% | Chemical Purity Assay ([1]; 40° C./75% RH, 3 months): 99.3 wt % | Crystallinity ([1]; 40° C./75% RH, 3 months): Conforms | Chiral Purity ([1]; 40° C./75% RH, 6 months): >99.9 area % | Description ([1]; 40° C./75% RH, 6 months): Off-white | Related Substances: Impurity #1 ([1]; 40° C./75% RH, 6 months): 0.25% | Total Impurities ([1]; 40° C./75% RH, 6 months): 0.25% | Water ([1]; 40° C./75% RH, 6 months): 1.60% | Chemical Purity Assay ([1]; 40° C./75% RH, 6 months): 100.0 wt % | Crystallinity ([1]; 40° C./75% RH, 6 months): Conforms | Crystallinity [2]: Conforms
